Legend:
Meniere's disease = conditions: existing drug (diuretic drug); cited from earlier work
mice = experiment: acute toxicity, minimum lethal dose; type: in vivo; conditions: male and female, orally or subcutaneously
rats = experiment: acute toxicity, minimum lethal dose; type: in vivo; conditions: male and female, orally or subcutaneously
[1] = system: patients afflicted with Meniere's disease; experiment: clinical pharmacological test in patients afflicted with Meniere's disease (Example 1); type: in vivo; conditions: 450 mg daily
Procedure: Pranlukast hydrate (trade name: onon capsule) was administered to 19 patients afflicted with Meniere's disease at a daily dose of 450 mg (two capsules each containing 112.5 mg individually after breakfast and after dinner) for the period of not less than three weeks (up to 24 weeks max.) to test and determine the efficacy. The overall efficacy (therapeutic) assessment was performed mainly on the basis of the results of nystagmus and hearing tests, while also taking into consideration the subjective symptoms (rotary vertigo, tinnitus, a feeling of fullness in ear, hearing rimpairment, etc.) and the extent or degree of hearing impairment (average hearing, method of quartering). In consequence of this, the efficacy was recognized and determined in 17(89.5%) out of 19 patients afflicted with Meniere's disease.

[2] = system: patients suffering from acute low-tone sensorineural hearing loss; experiment: clinical test in patients with acute low-tone sensorineural hearing loss (Example 2); type: in vivo; conditions: for Hearing in the sound ear 500 Hz: before administration 10 dB; for Hearing in the sound ear 250 Hz: before administration 15 dB; for Hearing in the sound ear Average hearing level: before administration 17 dB; for Hearing in the sound ear 125 Hz: before administration 25 dB; for Hearing in the affected ear 500 Hz: before administration 35 dB; for Hearing in the affected ear 125 Hz: before administration 40 dB; for Hearing in the affected ear Average hearing level: before administration 42 dB; for Hearing in the affected ear 250 Hz: before administration 50 dB
Procedure: Pranlukast hydrate (trade name: Onon capsule) was administered to the patients suffering from acute low-tone sensorineural hearing loss concurrently with a feeling of fullness in the left ear at a daily dose of 450 mg (two capsules each containing 112. 5 mg given individually after breakfast and dinner) for two months to investigate into the efficacy against hearing impairment, the major complaint. In connection to the above test, it is to be noted that selection of patients was performed in accordance with a draft of the Criteria for Diagnosis proposed by Study Group for Acute Severe Hearing Loss of the Ministry of Health, Labor and Welfare of Japan (refer to Audiology Japan., 45, 161-166 (2002)).

Compound: O[C@@H]1CO[C@H]2[C@@H]1OC[C@@H]2O [isosorbide]
- efficacy against hearing impairment, tinnitus and a feeling of fullness in the ear (Meniere's disease): hardly been found to exhibit the efficacy

Compound: O=C(Nc1cccc2c(=O)cc(-c3nnn[nH]3)oc12)c1ccc(OCCCCc2ccccc2)cc1 [pranlukast hydrate, 4-oxo-8-[4-(4-phenylbutoxy)benzoylamino]-2-(tetrazol-5-yl)-4H-1-benzopyran ½ hydrate]
- minimum lethal dose (mice): not less than 2000 mg/kg
- minimum lethal dose (rats): not less than 2000 mg/kg
- overall efficacy, patients in whom efficacy was recognized ([1]; oral, not less than three weeks (up to 24 weeks), 17 out of 19 patients): 89.5%
- effective rate in patients suffering from vertigo (rotary vertigo or stagger) ([1]; 6 out of 6 patients): 100%
- efficacy in patients complaining of the subjective symptoms ([1]; 15 out of 19 patients): 78.9%
- efficacy in patients suffering from hearing impairment ([1]; 15 out of 19 patients): 78.9%
- average hearing level recovered ([2]; 450 mg daily, after one month of administration, affected ear): 19 dB
- efficacy evaluation (healed/ameliorated/unchanged/worsened) ([2]; 450 mg daily, after two months of administration): healing
- effect on subjective symptoms and hearing ([2]; 450 mg daily, within one week of administration): tendency of amelioration
- Hearing in the sound ear 500 Hz ([2]; after one month): 15 dB
- Hearing in the sound ear 250 Hz ([2]; after one month): 15 dB
- Hearing in the sound ear Average hearing level ([2]; after one month): 18 dB
- Hearing in the sound ear 125 Hz ([2]; after one month): 25 dB
- Hearing in the affected ear 500 Hz ([2]; after one month): 15 dB
- Hearing in the affected ear 125 Hz ([2]; after one month): 30 dB
- Hearing in the affected ear Average hearing level ([2]; after one month): 23 dB
- Hearing in the affected ear 250 Hz ([2]; after one month): 25 dB
- Hearing in the sound ear 500 Hz ([2]; after two months): 10 dB
- Hearing in the sound ear 250 Hz ([2]; after two months): 15 dB
- Hearing in the sound ear Average hearing level ([2]; after two months): 17 dB
- Hearing in the sound ear 125 Hz ([2]; after two months): 25 dB
- Hearing in the affected ear 500 Hz ([2]; after two months): 10 dB
- Hearing in the affected ear 125 Hz ([2]; after two months): 25 dB
- Hearing in the affected ear Average hearing level ([2]; after two months): 18 dB
- Hearing in the affected ear 250 Hz ([2]; after two months): 20 dB
